In experiment [1] the target is Cyclin-dependent kinase 2 (Homo sapiens, UniProt P24941). The experiment in a line: (§1) IMAP-FPT (Molecular Devices Trade Mark Technology) Endpoint Assay: The assay was run under the conditions identical to that for CDK1/cyclin B except 0.25 nM CDK1/cyclin B was replaced with 0.3 nM CDK2/cyclin A. A 384-well microtiter IMAP-FPT (Molecular Devices Trade Mark Technology) endpoint assay was used for CDK1/cyclin B kinase activity measurements. The same assay was used for IC50 determination of small molecule inhibitors. In general, the kinase reactions were carried out in 20 μL volumes in the reaction solution, which is composed of 2 μL compound (in 20% DMSO), 8 μL CDK1/cyclin B in the 1× Reaction Buffer (Molecular Devices, Cat. No. R8139), 10 μL substrate mixture of Tamra Histone-H1 peptide (Molecular Devices, Cat. No. R7384) and ATP (Amersham Pharmacia, Cat. No. 27-2056-01) in the 1× Reaction Buffer with 1 mM DTT freshly added. The final reaction mixture contains compound (inhibitor) with the concentration varying from 0.005-10 μM, 2% DMSO, 0.25 nM CDK1/cyclin B, 100 nM Tamra Histone-H1 peptide, and 20 μM ATP.

The target of experiment [2] is Cyclin-dependent kinase 1 (Homo sapiens, UniProt P06493). The description is as §1, with “Assay:” for “Assay: The assay was run under the conditions identical to that for CDK1/cyclin B except 0.25 nM CDK1/cyclin B was replaced with 0.3 nM CDK2/cyclin A.”, “uL” for “μL”, “1x” for “1×”, “uM,” for “μM,”, “uM ATP.All reactions were run at room temperature in black 384-well flat-bottom Costar plates (Corning, Cat. No. 3710) for 120 min then were quenched.” for “μM ATP.”.
Chain of Cyclin-dependent kinase 1 (P06493 whole entry): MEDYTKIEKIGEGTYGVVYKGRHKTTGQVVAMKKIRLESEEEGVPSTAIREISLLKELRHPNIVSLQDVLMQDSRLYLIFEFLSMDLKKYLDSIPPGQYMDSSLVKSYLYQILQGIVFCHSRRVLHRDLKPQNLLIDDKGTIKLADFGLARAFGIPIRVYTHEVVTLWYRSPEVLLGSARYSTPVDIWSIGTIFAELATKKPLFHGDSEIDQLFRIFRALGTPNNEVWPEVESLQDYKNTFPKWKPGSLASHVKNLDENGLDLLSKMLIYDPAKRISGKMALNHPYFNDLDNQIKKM

The structures appear in SMILES notation. pIC50: −log10 of the molar value. Bounds are passed on as bounds.

IC50 data for one molecule are collected here from ChEMBL document CHEMBL3638874, “Pyrrolopyrimidine compounds and their uses” (2015).

On to `CN(C)C(=O)c1cc2cnc(Nc3ccc(N4CCNCC4=O)cn3)nc2n1C1CCCC1`, for which the pIC50 in experiment [1] and in experiment [2] was less than 4.82 in each case.
